Source: patent US20240408064A1, “RAS INHIBITORS, COMPOSITIONS AND METHODS OF USE THEREOF” (GENETOLEAD INC., priority 2021, published 2024)
“And” between values parts separate entries of the source, which are not always exact repeats. Equal values may be shown once. “Also recorded” adds a separate entry of the source.

Tests used:
[1] = Solubility and free-state aggregation in the NMR screen; type: physicochemical; details: NMR buffer
Description: Fragment screening has been performed using a library containing 461 fragments that has been designed using cheminformatics parameters such as Rule of Three and PAINS analysis. All fragments have been curated by ^1H and ^19F NMR for structure verification, purity, solubility in phosphate buffer and lack of apparent aggregation under these conditions. Fragments were pooled according to chemical compatibility resulting in 31 different pools to increase screening throughput. The library was provided by NMX Research in Solutions Inc.
Because of its power to probe the intrinsically weak interactions (Kd) between targets and low-molecular weight fragments, NMR fragment-based lead discovery (FBLD) is a very useful biophysical method in early stage drug discovery, especially for challenging target proteins; including those with shallow binding pockets. Since FBLD screens are performed using low-molecular weight compounds (fragments) with lower structural complexity, the same chemical space can be covered using a smaller number of drug-like fragments versus use of large libraries of higher-molecular weight lead-like compounds as in high throughput screening (HTS) campaigns. Therefore, FBLD has a much higher hit rate than HTS using only several hundred to several thousand compounds in comparison with approximately 1 million compounds for HTS. Also, the small size of the compounds screened in FBLD means a better chance to fully match the interactions with small or transient pockets within the target protein, where these less tractable pockets cannot be accessed with standard classical HTS methods. […] We expect this methodology to be more advantageous than classical HTS methods for expediting the time from hit to lead (H2L) and allows for rapid access to high quality leads with lower attrition rates in subsequent lead optimization (LO) campaigns toward pre-clinical candidate selection. FBLD screening by NMR involves a “consensus binding” approach where several distinct NMR experiments (DLB, STD, CPMG) are applied along with a free-state aggregation detection method (T2-CPMG) to rank the compounds for their affinity to the receptor (HRAS in this case) whilst simultaneously monitoring the solution behavior and critical quality attributes of each compound. The latter helps to eliminate artifact binders which are highly problematic. We performed a fluorine screen involving 461 compounds that were derived from a highly curated fragment library. Moreover, two-dimensional ^15N HSQC NMR was also used to validate ligand-binding sites on the target protein. In addition, we employed protein-detected biophysical measurements were employed to determine fragment binding affinities to the target protein (Kd) by HSQC NMR. From the results, we picked the most interesting hit were picked, FS-1255 that was identified based on consensus binding evidence from all NMR detection methods, and based the lack of free-state aggregation by T2-CPMG. We chose to prioritize on FS-1255 which was the most promising fragment hit.

HRas^G12V [2] = target: T1, HRas^G12V (Homo sapiens (Human), UniProt P01112, G12V); experiment: Overall binding/activity in the various assays (NMR consensus binding)
How it was run: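 Fragments (240 µM each, pooled) screened against 50 µM HRas^G12V in 25 mM sodium phosphate pH 7.4, 150 mM NaCl, 5 mM MgCl2, 1 mM TCEP-d16 by 1H-decoupled 1D 19F NMR. Hits confirmed by ligand- and protein-observed 1D 1H, STD and T2-CPMG (aggregation check); consensus binding ranked, with 15N HSQC for sites and Kd.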

HRas^G12V [3] = target: T1, HRas^G12V; experiment: 19F DLB (ligand-observed 19F NMR) score; type: binding; set-up: scale not given here
How it was run: (§1)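 Fragments were pooled at 240 μM each with 50 μM HRas G12V in 25 mM sodium phosphate pH 7.4, 150 mM NaCl, 5 mM MgCl2, 1 mM TCEP-d16, 10% D2O, and screened by 1H-decoupled 1D 19F NMR at 600 MHz (64 scans, 5 s relaxation delay). T2-CPMG data were collected with 1 ms echoes and eight delays from 1 to 800 ms.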

KRAS^G12D-GDP [4] = target: T2, KRAS^G12D-GDP (Homo sapiens (Human), UniProt P01116, G12D); experiment: Overall activity in the various assays, KRAS^G12D-GDP; type: binding
Method: (§2) The activity of compounds of the invention regarding KRAS^G12D-GDP was measured in the same as in Example 80. The results obtained with the compounds in the various assays described above are depicted in Table 23.

HRas^G12V [5] = target: T1, HRas^G12V; experiment: 19F T2-CPMG NMR score; type: binding
How it was run: as §1

KRAS^G12D-GDP [6] = target: T2, KRAS^G12D-GDP; experiment: NMR Kd, KRAS^G12D-GDP; type: binding; details: 1H 1D protein-observed NMR, read-out: 1H 1D PO NMR Kd
Method: (§3) ^1H/^15N Fast-HSQC experiments (Mori et al., Journal of Magnetic Resonance, Series B, Volume 108, Issue 1, July 1995, Pages 94-98) were recorded at a protein concentration of 50-100 μM.
(§4) Dissociation constants were obtained by monitoring changes in chemical shifts as a function of ligand concentration. The changes in chemical shifts (d) were calculated according to the following equation (Williamson, Progress in Nuclear Magnetic Resonance Spectroscopy, Volume 73, August 2013, Pages 1-16): d=√(1/2[δ_H^2+[…]]), Where δ are the changes in chemical shift in ppm for ^1H and ^15N and the correction factor (α) was set at 0.15.
(§5) ^1H 1D protein-observed experiments were recorded with 15-50 μM protein. The standard Bruker 1D ^1H sequence with excitation sculpting (zgesgp) was employed. A relaxation delay of 1 s was employed in order to use 256 scans while still keeping experimental time fairly short. Changes in protein chemical shift or peak intensity in the methyl region were monitored against compound concentration.
as §2

KRAS^G12D-GDP [7] = target: T2, KRAS^G12D-GDP; experiment: 19F DLB score, KRAS^G12D-GDP; type: binding; set-up: scale not given here
Method: (§6) Since the fragment library was curated using phosphate buffer, 25 mM sodium phosphate pH 7.4, 150 mM NaCl, 5 mM MgCl2, 1 mM TCEP-d16, 10% D2O Fresh TCEP was used for experiments. Screening was performed using ^1H-decoupled 1D ^19F experiment Bruker experiment (zgfhigqn.2) with 64 scans and a relaxation delay of 5 seconds. 50 μM HRas^G12V and 240 μM of each fragment in pools (mixtures) were used.
(§7) Hit confirmation was performed using the same ^19F experiment as the screen. Ligand-observed 1D ^1H, protein-observed 1D ^1H, ^1H T2-CPMG as well as Saturation Transfer Difference (STD) experiments were also run on the same samples. Ligand-observed 1D ^1H was run using the standard Bruker sequence with excitation sculpting (zgesgp) with a relaxation delay of 10 seconds and 16 scans per spectrum. Protein-observed 1D ^1H was performed using the same sequence with a relaxation delay of 1 second and 256 scans in order to increase the signal-to-noise of the protein resonances, while keeping the experimental time relatively short. The ^1H T2-CPMG experiment employed a modified version of the Bruker 1D ^1H zgesgp experiment with the addition of a CPMG pulse train after the first 90° excitation pulse. Total duration for each spin echo was fixed at 1 ms (τ=500 μs), while the number of echoes in the pulse train was varied according to the total time (T). The number of scans for each spectrum was 4 and eight delay times were run on each sample, ranging from 1 ms to 800 ms.
as §2

HRas^G12V [8] = target: T1, HRas^G12V; experiment: Dissociation constant by NMR (1H/15N Fast-HSQC, 1H 1D protein-observed); type: binding; details: HRas^G12V; read-out: NMR Kd
Method: All NMR experiments were collected using 3 mm NMR tubes on a 600 MHz Bruker Avance III spectrometer equipped with a QCI helium cryoprobe and a SampleJet sample changer. The buffer used for NMR experiments was 25 mM sodium phosphate pH 7.4, 150 mM NaCl, 5 mM MgCl2, 1 mM TCEP-d16, 10% D2O. Data were processed using Bruker TopSpin.
as §3, §4, §5

KRAS^G12D-GDP [9] = target: T2, KRAS^G12D-GDP; experiment: 19F T2-CPMG score, KRAS^G12D-GDP; type: binding
Method: as §6, §7, §2

wild type HRAS [10] = target: T3, wild type HRAS (Homo sapiens (Human), UniProt P01112); experiment: 19F T2-CPMG score, wild type HRAS; type: binding
Method: as §6, §7
(§8) The activity of compounds of the invention regarding wild type HRAS was measured in the same as in Example 80. The results obtained with the compounds in the various assays described above are depicted in Table 2.

wild type HRAS [11] = target: T3, wild type HRAS; experiment: 19F DLB score, wild type HRAS; type: binding
Method: as §6, §7, §8

wild type HRAS [12] = target: T3, wild type HRAS; experiment: NMR Kd, wild type HRAS; type: binding
Method: as §3, §4, §5, §8

Row | Structure (SMILES) | Solution behaviour in the NMR screen [1] | Binding to HRas^G12V (in words) (HRas^G12V [2]) | 19F DLB Score (HRas^G12V [3]) | 19F T2-CPMG Score (HRas^G12V [5]) | further results
1 | N#Cc1ccc(NC(=O)Cc2c[nH]c3cc(F)ccc23)cc1 [Compound 10054] | Not soluble | low or no binding | – | – | –
2 | COc1cc(Cl)ccc1NC(=O)Cc1c[nH]c2cc(F)ccc12 [Compound 10051] | Not soluble | low or no binding | – | – | –
3 | COc1ccc(NC(=O)Cc2c[nH]c3cc(F)ccc23)cc1C [Compound 10057] | Not soluble | low or no binding | – | – | –
4 | Cc1ccc(Cl)cc1NC(=O)Cc1c[nH]c2cc(F)ccc12 [Compound 10061] | Not soluble | low or no binding | – | – | –
5 | COc1ccc(NC(=O)Cc2c[nH]c3cc(F)ccc23)cc1Cl [Compound 10055] | Not soluble | low or no binding | – | – | –
6 | CC(=O)N1CCN(C(=O)Cc2c[nH]c3cc(F)ccc23)CC1 [Compound 10040] | – | – | 1.64 | 12.69 | Activity ranking on KRAS^G12D-GDP (in words) (KRAS^G12D-GDP [4]): most active; Kd (KRAS^G12D-GDP [6]): 5.2 mM; Activity ranking on HRas^G12V (in words) (HRas^G12V [2]): More active; 19F DLB Score (KRAS^G12D-GDP [7]): 1.63; Kd (HRas^G12V [8]): 4.03 to 9.5 mM; 19F T2-CPMG Score (KRAS^G12D-GDP [9]): 7.49
7 | CN(C)CC(=O)Nc1cccc(NC(=O)C(C#N)c2c[nH]c3cc(F)ccc23)c1 (stereo not shown) [Compound 11032] | – | – | 4.73 | <LLOQ | 19F T2-CPMG Score (wild type HRAS [10]): <LLOQ; Activity ranking on HRas^G12V (in words) (HRas^G12V [2]): More active; also recorded: Most active; 19F DLB Score (wild type HRAS [11]): 5.76
8 | O=C(Cc1c[nH]c2cc(F)ccc12)Nc1cccc(F)c1 [Compound 10072] | Aggregated | low or no binding | – | – | –
9 | COC(=O)c1cc(NC(=O)Cc2c[nH]c3cc(F)ccc23)cc(OC)c1 [Compound 10060] | Not soluble | low or no binding | – | – | –
10 | CN(C)Cc1[nH]c2cc(F)ccc2c1C(CC(=O)O)c1ccccc1F (stereo not shown) [Compound 11066] | – | – | 0.91 | −0.25 | Activity ranking on KRAS^G12D-GDP (in words) (KRAS^G12D-GDP [4]): most active; Activity ranking on HRas^G12V (in words) (HRas^G12V [2]): More active
11 | COc1ccc(NC(=O)Cc2c[nH]c3cc(F)ccc23)cc1F [Compound 10056] | Not soluble | low or no binding | – | – | –
12 | CN(C)Cc1c[nH]c2cc(F)ccc12 [FS-1255, reference compound] | – | weak binding affinity | 1.77 and 1.7 and 1.65 | 5.22 | 19F DLB Score (KRAS^G12D-GDP [7]): 1.51; Kd (HRas^G12V [8]): 9.83 to 12 mM; Kd (wild type HRAS [12]): 6.07 mM; 19F T2-CPMG Score (KRAS^G12D-GDP [9]): 3.62
